Laboratory results taken from ChEMBL document CHEMBL3769391, “Identification of a new cyathane diterpene that induces mitochondrial and autophagy-dependent apoptosis and shows a potent in vivo anti-colorectal cancer activity” (Eur J Med Chem, 2016).

Key:
Format in all cases: functional
HCT-116 [1] = test: Induction of apoptosis in Bax deficient human HCT116 cells assessed as late apoptotic cells at […] after 24 hrs by Annexin V-FITC/propidium iodide staining based flow cytometry (reference value: 1.56%)
HCT-116 [2] = test: Induction of apoptosis in Bax deficient human HCT116 cells assessed as early apoptotic cells at […] after 24 hrs by Annexin V-FITC/propidium iodide staining based flow cytometry (reference value: 0.85%)
HCT-116 [3] = test: Induction of apoptosis in human HCT116 cells assessed as late apoptotic cells at […] after 24 hrs by Annexin V-FITC/propidium iodide staining based flow cytometry (reference value: 3.73%)
HCT-116 [4] = test: Induction of apoptosis in human HCT116 cells assessed as early apoptotic cells at […] after 24 hrs by Annexin V-FITC/propidium iodide staining based flow cytometry (reference value: 2.2%)
HCT-116 [5] = test: Induction of apoptosis in human HCT116 cells assessed as necrotic cells at […] after 24 hrs by Annexin V-FITC/propidium iodide staining based flow cytometry (reference value: 0.44%)
HCT-116 [6] = test: Induction of apoptosis in human HCT116 cells assessed as viable cells at […] after 24 hrs by Annexin V-FITC/propidium iodide staining based flow cytometry (reference value: 93.64%); conditions: HCT-116, 24 h, read-out: Activity
HCT-116 [7] = test: Induction of apoptosis in human HCT116 cells assessed as late apoptotic cells at 10 uM after 12 hrs by Annexin V-FITC/propidium iodide staining based flow cytometry (reference value: 3.37%)
HCT-116 [8] = test: Induction of apoptosis in human HCT116 cells assessed as early apoptotic cells at 10 uM after 12 hrs by Annexin V-FITC/propidium iodide staining based flow cytometry (reference value: 1.13%)

## CC(=O)N[C@@H](CS)C(=O)O [ACETYLCYSTEINE]
HCT-116 [1]
  Activity: 1.75%
HCT-116 [2]
  Activity: 1.21%
HCT-116 [3]
  Activity: 5.62%
HCT-116 [4]
  Activity: 1.86%
HCT-116 [5]
  Activity: 0.7%
HCT-116 [6]
  viability: 91.8%

## CO[C@H]1C(C=O)=CC[C@@H]2C3=C(C(C)C)CC[C@]3(C)CC[C@@]2(C)[C@H]1O
HCT-116 [7]
  Activity: 3.68%
HCT-116 [8]
  Activity: 3.83%

## OC(CS)C(O)CS (racemic) [DL-DITHIOTHREITOL]
HCT-116 [1]
  Activity: 3.5%
HCT-116 [2]
  Activity: 2.99%
HCT-116 [3]
  Activity: 8.67%
HCT-116 [4]
  Activity: 3.12%
HCT-116 [5]
  Activity: 0.21%
HCT-116 [6]
  viability: 88%
